Measurements reported in patent publication US20040236519A1, “Libraries of confomationally constrained peptides, chiral azacrowns, and peptidomimetics and methods of making the same” (priority 2001, published 2004).

Tests used:
Sodium, Site 2 [1] = conditions: cited from earlier work
[2] = biological target: Potassium Channel, ATP-Sensitive; conditions: cited from earlier work
human opioid μ receptor = biological target: T1, human opioid μ receptor (Homo sapiens, UniProt P35372); assay: Opioid receptor binding, [3H]DAMGO, CHO cell membranes
T1 construct: expressed in transfected cells; host or cells: CHO cells, membranes
T1 sequence (P35372 whole entry): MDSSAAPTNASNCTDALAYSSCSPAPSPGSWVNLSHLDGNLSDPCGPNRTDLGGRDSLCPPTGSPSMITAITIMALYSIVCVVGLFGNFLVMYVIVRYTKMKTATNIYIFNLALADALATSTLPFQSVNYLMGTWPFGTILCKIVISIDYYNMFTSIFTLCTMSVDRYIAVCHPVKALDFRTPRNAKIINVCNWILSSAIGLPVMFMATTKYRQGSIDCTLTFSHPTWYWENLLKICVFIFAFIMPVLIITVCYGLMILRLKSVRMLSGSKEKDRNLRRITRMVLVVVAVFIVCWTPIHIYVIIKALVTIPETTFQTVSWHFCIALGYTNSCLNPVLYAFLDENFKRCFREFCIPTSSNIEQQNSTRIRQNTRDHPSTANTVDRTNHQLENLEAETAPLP
Protocol: (§1) Evaluation of M40403 binding affinity for opioid receptors in vitro radioligand binding assays. Referring to FIGS. 6-11, receptor binding studies were conducted on human opioid receptors transfected into Chinese hamster ovary (CHO) cells. The μ cell line is maintained in Ham's F-12 medium supplemented with 10% fetal bovine serum and 400 μg/ml GENETICIN (G418 sulfate). The δ cell line is maintained in Ham's F-12 medium supplemented with 10% fetal bovine serum and 500 μg/ml hygromycin B. The k cell line is maintained in Dulbecco's minimal essential medium (DMEM) supplemental with 10% fetal bovine serum, 400 μg/ml GENETICIN (G418 sulfate) and 0.1% penicillin/streptomycin. All cell lines are grown to full confluency, then harvested for membrane preparation. The membrane for binding assays is prepared in 50 mM Tris buffer, pH 7.7. Cells are harvested by scraping the plates with a rubber policeman and then centrifuged at 500×g for 10 minutes. The cell pellet is suspended in buffer A or Tris buffer, homogenized in a Polytron Homogenizer, and centrifuged at 20,000×g for 20 minutes. The cell pellet is washed in buffer A or Tris, centrifuged at 20,000×g for another 20 minutes and finally suspended in a small amount of buffer to determine protein content. Membrane is aliquoted in small vials at a concentration of 6 mg/ml per vial and stored at −70° C. and used as needed.
(§2) Routine binding assays were conducted using [^3H]DAMGO, [^3H]C1-DPDPE, and [^3H]U69,593 to bind to μ, δ and k receptors, respectively. […] Filters are dried overnight before radioactivity levels are determined. Nonspecific binding is determined by using 1.0 μM of the unlabeled counterpart of each radioligand.
(§3) Full characterization of compounds includes analysis of the data for IC50 values and Hill coefficients by using the program PRIMS. Ki values are calculated using the Cheng Prusoff transformation: [formula]
(§4) where L is radioligand concentration and Kd is the binding affinity of the radioligand, as determined previously by saturation analysis. […]

human opioid δ receptor = biological target: T2, human opioid δ receptor (Homo sapiens, UniProt P41143); assay: Opioid receptor binding, [3H]Cl-DPDPE, CHO cell membranes
T2 construct: expressed in transfected cells; host or cells: CHO cells, membranes
T2 sequence (P41143 whole entry): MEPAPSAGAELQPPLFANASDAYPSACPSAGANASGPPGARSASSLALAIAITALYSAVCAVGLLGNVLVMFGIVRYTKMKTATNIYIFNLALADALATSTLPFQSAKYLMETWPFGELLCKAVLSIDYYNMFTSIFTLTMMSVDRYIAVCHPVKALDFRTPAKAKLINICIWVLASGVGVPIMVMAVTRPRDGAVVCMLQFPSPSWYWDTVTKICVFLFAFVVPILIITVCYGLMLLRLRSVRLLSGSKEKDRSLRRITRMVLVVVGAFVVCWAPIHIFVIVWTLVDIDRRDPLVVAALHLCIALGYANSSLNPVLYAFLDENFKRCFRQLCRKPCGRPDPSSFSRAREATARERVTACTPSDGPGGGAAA
Protocol: as §1, §2, §3, §4

[3] = test system: Potassium Channel, ATP-Sensitive; assay: Radioligand binding assay, potassium channel, ATP-sensitive (NOVASCREEN); conditions: 1.0E−5 (single dose 10 μM); average, N = 2
Protocol: (§5) Evaluation of M40403 and M40401 in the following radioligand binding assays: potassium channels (ATP-sensitive, Ca2+Act., VI, potassium channel, CA2+Act., VS) and sodium channels (site 1 and site 2). M40403 and M40401 were tested at a single does of 10 µM. The list of an appropriate radioligand used in each ion channel assay is shown in Table 1. […].
(§6) Screening assays can provide valuable information about a compound's biological activity and selectivity. NOVASCREEN Biosciences Corporation of Hanover, Md. was used for these assays. To understand and assess the data, these guidelines are to be used for interpretation of the data presented:
(§7) In most assays, our standard baseline range runs from −20% to +20% inhibition of binding or enzyme activity. […]. NOVASCREEN's assays are designed to test for inhibition of binding or enzyme activity. […]. NOVASCREEN uses a criteria of 50% inhibition (or greater) to qualify a compound as active. Active compounds tested at multiple concentrations can generally be expected to show a dose-dependent response and such follow-up studies are recommended.

human opioid k receptor = biological target: T3, human opioid k receptor (Homo sapiens, UniProt P41145); assay: Opioid receptor binding, [3H]U69,593, CHO cell membranes; conditions: human receptor in CHO cell membranes, Cheng Prusoff
T3 construct: expressed in transfected cells; host or cells: CHO cells, membranes
T3 sequence (P41145 whole entry): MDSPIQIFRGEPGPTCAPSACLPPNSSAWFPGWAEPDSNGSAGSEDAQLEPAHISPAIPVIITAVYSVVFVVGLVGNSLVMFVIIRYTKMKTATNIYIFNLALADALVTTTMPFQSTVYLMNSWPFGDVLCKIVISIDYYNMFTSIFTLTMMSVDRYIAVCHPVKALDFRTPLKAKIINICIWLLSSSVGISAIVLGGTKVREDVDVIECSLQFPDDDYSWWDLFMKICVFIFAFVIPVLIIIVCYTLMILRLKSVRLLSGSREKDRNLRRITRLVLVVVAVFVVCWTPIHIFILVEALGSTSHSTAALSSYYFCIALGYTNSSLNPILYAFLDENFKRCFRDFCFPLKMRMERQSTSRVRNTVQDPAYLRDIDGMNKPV
Protocol: Evaluation of M40403 binding affinity for opioid receptors in vitro radioligand binding assays. Referring to FIGS. 6-11, receptor binding studies were conducted on human opioid receptors transfected into Chinese hamster ovary (CHO) cells. The μ cell line is maintained in Ham's F-12 medium supplemented with 10% fetal bovine serum and 400 μg/ml GENETICIN (G418 sulfate). The δ cell line is maintained in Ham's F-12 medium supplemented with 10% fetal bovine serum and 500 μg/ml hygromycin B. The k cell line is maintained in Dulbecco's minimal essential medium (DMEM) supplemental with 10% fetal bovine serum, 400 μg/ml GENETICIN (G418 sulfate) and 0.1% penicillin/streptomycin. […]
as §2, §3, §4

Sodium, Site 2 [4] = assay: Radioligand binding assay, sodium channel site 2 (NOVASCREEN); conditions: 1.0E−5 (single dose 10 μM); average, N = 2
Protocol: as §5, §6, §7

[5] = test system: Potassium Channel, Ca2+ Act., VS; assay: Radioligand binding assay, potassium channel, Ca2+ Act., VS (NOVASCREEN); conditions: 1.0E−5 (single dose 10 μM); average, N = 2
Protocol: as §5, §6, §7

[6] = test system: Potassium Channel, Ca2+ Act., VI; assay: Radioligand binding assay, potassium channel, Ca2+ Act., VI (NOVASCREEN); conditions: 1.0E−5 (single dose 10 μM); average, N = 2
Protocol: as §5, §6, §7

Sodium, Site 1 = assay: Radioligand binding assay, sodium channel site 1 (NOVASCREEN); conditions: 1.0E−5 (single dose 10 μM); average, N = 2
Protocol: as §5, §6, §7

[7] = biological target: Potassium Channel, Ca2+ Act., VS; conditions: cited from earlier work
[8] = Competitive metal binding by ESI-MS; assay type: physicochemical
Protocol: The ability of these peptides to bind metals was determined by electrospray-ionization mass spectrometry (hereinafter “ESI-MS”). ESI-MS has been successfully used to study a wide variety of non-covalent interactions owing to the gentle nature of the electrospray-ionization process that allows non-covalent complexes to be introduced intact into the gas phase. Thus, ESI-MS provides equilibrium information about the solution and the relative abundance of different peptide-metal binding complexes. The peptide ligands were dissolved in 50% CH3CN or methanol and then diluted to 10 mM solution with 1 mM of CH3COONH4/10% CH3OH solution. Stock solutions (200 uM) of the metal ions (CuSO4, NiSO4, ZnSO4, HgSO4. Co(NO3)2) were made. 40 ul of the ligand solution was mixed with 40 ul of the metal-ion solution, diluted with methanol or 1 mM of CH3COONH4. The solution was treated with KOH to form the complex. Competitive binding was used to study the relative metal-binding properties of each ligand by adding two different metal ions.

[9] = biological target: Potassium Channel, Ca2+ Act., VI; conditions: radioligand of the assay; cited from earlier work
[10] = Giblin et al., cited from earlier work; for binding affinity reduced compared with the disulfide parent: rhenium complex
[11] = human receptor in CHO cell membranes, Cheng Prusoff

CCN1C[C@]2(COC)[C@H](O)C[C@H](OC)[C@@]34[C@@H]5C[C@@]6(O)[C@H](OC(=O)c7ccccc7)[C@@H]5[C@@](OC(C)=O)([C@@H]([C@H](OC)[C@H]23)[C@@H]14)[C@@H](O)[C@@H]6OC [Aconitine]
Ki (Sodium, Site 2 [1]; reference compound, radioligand [3H]Bactrachotoxin A 20-a-Benzo, read-out: Ki (M) Ref. Cpd.): 8.38e-07 M

COc1ccc(Cl)cc1C(=O)NCCc1ccc(S(=O)(=O)NC(=O)NC2CCCCC2)cc1 [Glibenclamide]
Ki ([2]; reference compound, radioligand [3H]Glibenclamide, read-out: Ki (M) Ref. Cpd.): 7.85e-10 M

[Cl-].[Cl-].[Mn+2].c1cc2nc(c1)CN[C@@H]1CCCC[C@H]1NCCN[C@@H]1CCCC[C@H]1NC2 [M40403]
IC50 (human opioid μ receptor; Hot Ligand [3H]DAMGO, Jul. 2, 1999 and confirmation Jul. 5, 1999, read-out: IC50, MU Binding): > 10000 nM
Ki (human opioid μ receptor; [11]): > 10000 nM
affinity for mu receptors (human opioid μ receptor; summary in words): no significant affinity
IC50 (human opioid δ receptor; Hot Ligand [3H]DPDPE-CL, Jul. 2, 1999 and confirmation Jul. 5, 1999, read-out: IC50, Delta Binding): > 10000 nM
Ki (human opioid δ receptor; [11]): > 10000 nM
affinity for delta receptors (human opioid δ receptor; summary in words): no significant affinity
Percent Inhibition [3]: 4.67%
Ki (human opioid k receptor): ~240 nM
Ki (human opioid k receptor; listed as 20,636): 240 ± 121 nM
Percent Inhibition (Sodium, Site 2 [4]): 93.84%
Percent Inhibition [5]: 9.72%
Percent Inhibition [6]: 30.35%
Percent Inhibition (Sodium, Site 1): −19.68%

COc1ccc(Cl)cc1C(=O)NCCc1ccc(S(=O)(=O)NC(=O)NC2CCCCC2)cc1 [[3H]Glibenclamide]
Kd ([2]; radioligand of the assay): 0.25 nM

Charybdotoxin
Ki ([7]; reference compound, radioligand [125I]Charybdotoxin, read-out: Ki (M) Ref. Cpd.): 5.12e-10 M

H-Val-Ψ(CONOH)-Phe-Ala-Pro-Leu-CONOH [compound 14]
metal-binding ability ([8]; among the peptides containing two hydroxymate groups, competitive binding): strongest metal-binding ability
metal-binding specificity ([8]; competitive binding with two different metal ions): Cu(II)>Co(II)>Fe(III)>Cd(II)>Zn(II)>Ni(II)

[3H]Bactrachotoxin A 20-a-Benzo
Kd (Sodium, Site 2 [1]; radioligand of the assay): 32 nM

[125I]Apamin
Kd [9]: 0.07 nM

[125I]Charybdotoxin
Kd ([7]; radioligand of the assay): 0.1 nM

[Cys^3,4,10, D-Phe7]-α-Msh4-13
binding affinity improved over the previous rhenium complex [10]: 25 fold
binding affinity reduced compared with the disulfide parent [10]: 4 fold

[Cys^4,10, D-Phe7]-α-Msh4-13
binding affinity reduced compared with the disulfide parent [10]: approximately 100 fold
